From patent US12187742B2 (XRAD Therapeutics, Inc., priority 2018, dated 2025) come the findings set out here.

The structures appear in SMILES notation. Counter-ions that a name gives are not always drawn.

ATM, sequence (Q13315 whole entry): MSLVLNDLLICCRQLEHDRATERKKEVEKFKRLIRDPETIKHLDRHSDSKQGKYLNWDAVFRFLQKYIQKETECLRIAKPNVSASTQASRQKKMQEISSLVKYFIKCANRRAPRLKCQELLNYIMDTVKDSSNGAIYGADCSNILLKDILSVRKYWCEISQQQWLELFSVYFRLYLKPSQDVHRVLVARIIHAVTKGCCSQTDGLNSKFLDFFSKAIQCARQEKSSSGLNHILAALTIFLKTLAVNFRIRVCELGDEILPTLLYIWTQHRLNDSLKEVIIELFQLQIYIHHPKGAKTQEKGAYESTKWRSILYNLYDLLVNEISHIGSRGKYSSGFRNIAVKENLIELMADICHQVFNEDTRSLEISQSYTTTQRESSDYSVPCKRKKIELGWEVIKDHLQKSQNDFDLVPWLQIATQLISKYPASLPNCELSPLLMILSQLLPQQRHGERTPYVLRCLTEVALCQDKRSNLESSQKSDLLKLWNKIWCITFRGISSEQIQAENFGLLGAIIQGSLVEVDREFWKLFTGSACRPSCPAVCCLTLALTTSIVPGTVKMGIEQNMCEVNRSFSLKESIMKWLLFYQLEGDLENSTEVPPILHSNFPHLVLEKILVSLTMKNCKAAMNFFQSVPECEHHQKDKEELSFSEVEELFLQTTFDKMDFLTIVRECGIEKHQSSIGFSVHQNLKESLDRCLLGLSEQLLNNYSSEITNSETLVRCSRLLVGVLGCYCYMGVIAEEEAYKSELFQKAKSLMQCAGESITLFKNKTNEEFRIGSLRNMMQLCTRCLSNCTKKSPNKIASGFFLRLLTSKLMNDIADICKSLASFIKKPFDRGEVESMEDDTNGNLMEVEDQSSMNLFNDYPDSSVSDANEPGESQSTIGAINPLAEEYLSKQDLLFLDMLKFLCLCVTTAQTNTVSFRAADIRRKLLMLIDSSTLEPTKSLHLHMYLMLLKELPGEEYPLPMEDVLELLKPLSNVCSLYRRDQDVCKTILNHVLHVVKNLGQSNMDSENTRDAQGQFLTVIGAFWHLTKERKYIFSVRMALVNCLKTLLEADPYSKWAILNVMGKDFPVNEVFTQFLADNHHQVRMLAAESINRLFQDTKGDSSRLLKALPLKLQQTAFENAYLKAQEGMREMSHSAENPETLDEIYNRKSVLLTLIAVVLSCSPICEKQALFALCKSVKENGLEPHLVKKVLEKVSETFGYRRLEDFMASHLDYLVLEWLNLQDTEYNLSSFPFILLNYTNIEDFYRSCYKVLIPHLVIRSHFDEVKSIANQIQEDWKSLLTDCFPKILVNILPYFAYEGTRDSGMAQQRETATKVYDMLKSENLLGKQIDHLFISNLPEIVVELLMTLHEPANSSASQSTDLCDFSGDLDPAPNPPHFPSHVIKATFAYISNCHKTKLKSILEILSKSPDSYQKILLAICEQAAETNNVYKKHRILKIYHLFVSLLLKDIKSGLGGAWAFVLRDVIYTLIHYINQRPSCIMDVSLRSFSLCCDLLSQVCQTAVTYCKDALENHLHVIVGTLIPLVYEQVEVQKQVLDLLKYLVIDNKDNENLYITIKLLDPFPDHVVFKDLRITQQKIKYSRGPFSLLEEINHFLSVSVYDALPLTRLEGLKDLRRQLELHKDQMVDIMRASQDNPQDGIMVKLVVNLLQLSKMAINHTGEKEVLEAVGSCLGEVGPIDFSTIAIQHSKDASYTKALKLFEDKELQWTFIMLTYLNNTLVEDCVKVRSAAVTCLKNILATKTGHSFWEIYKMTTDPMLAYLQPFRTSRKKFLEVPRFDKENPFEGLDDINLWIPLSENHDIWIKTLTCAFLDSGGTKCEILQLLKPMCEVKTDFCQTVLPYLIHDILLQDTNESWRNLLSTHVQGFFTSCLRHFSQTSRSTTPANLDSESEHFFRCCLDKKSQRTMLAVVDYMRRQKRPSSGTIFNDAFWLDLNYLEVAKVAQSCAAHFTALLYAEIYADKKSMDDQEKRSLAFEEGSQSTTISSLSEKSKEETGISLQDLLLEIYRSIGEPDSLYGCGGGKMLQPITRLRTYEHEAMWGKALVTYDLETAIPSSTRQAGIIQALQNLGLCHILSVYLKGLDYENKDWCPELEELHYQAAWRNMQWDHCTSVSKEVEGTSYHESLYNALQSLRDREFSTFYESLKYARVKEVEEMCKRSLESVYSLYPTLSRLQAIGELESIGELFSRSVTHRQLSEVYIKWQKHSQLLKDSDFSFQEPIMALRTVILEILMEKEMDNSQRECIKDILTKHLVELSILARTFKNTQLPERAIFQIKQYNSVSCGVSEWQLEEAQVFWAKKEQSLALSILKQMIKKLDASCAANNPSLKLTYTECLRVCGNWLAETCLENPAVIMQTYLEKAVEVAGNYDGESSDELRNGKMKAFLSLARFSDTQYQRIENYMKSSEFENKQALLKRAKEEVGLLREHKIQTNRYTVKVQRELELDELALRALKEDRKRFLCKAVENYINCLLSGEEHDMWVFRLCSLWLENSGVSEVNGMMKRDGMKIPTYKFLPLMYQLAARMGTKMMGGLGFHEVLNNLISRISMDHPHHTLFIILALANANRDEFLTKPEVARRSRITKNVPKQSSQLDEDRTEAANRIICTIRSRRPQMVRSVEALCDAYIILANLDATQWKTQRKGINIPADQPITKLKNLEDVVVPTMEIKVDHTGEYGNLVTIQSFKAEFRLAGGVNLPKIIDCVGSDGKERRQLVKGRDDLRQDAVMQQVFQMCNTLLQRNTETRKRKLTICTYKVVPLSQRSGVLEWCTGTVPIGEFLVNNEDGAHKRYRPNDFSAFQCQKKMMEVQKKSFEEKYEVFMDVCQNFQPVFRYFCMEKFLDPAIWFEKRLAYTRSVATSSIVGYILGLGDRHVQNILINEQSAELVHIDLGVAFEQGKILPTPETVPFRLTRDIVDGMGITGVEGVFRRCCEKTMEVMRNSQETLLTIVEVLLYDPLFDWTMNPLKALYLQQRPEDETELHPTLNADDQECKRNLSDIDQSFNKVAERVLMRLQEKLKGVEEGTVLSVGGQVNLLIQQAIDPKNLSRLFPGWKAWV

One experiment addresses ATM (Homo sapiens (Human), UniProt Q13315). Put plainly: ATM in Cell Western Assay (pKAP1 in etoposide-treated MCF-7 cells). In kind it is cell-based. The following applies: MCF-7 cells, etoposide 100 μM, 1 hr, pKAP1 readout. In outline:
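Cells received compounds in a 10-dose, 3-fold series from a 1 μM final top concentration, then 100 μM etoposide, for 1 hr at 37° C. They were then fixed with paraformaldehyde and permeabilized with 0.1% Triton X-100. After immunostaining, plates were scanned on an infrared imager.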
For `CN1C(=O)C2(CC2)c2c1cnc1ccc(-c3cnc4ccccc4c3)cc21` [Example 20, 3′-Methyl-8′-(quinolin-3-yl)spiro[cyclopropane-1,1′-pyrrolo[2,3-c]quinolin]-2′(3′-H)-one], the 50% inhibitory concentration (IC50) (usually the midpoint of a concentration-inhibition curve) was over 100 nM.
For the compound `CN1C(=O)C2(CCC2)c2c1c(N)nc1ccc(-c3cnc(N4CC(N(C)C)C4)c(NS(C)(=O)=O)c3)cc21` [Example 327, N-(5-(4′-Amino-3′-methyl-2′-oxo-2′,3′-dihydrospiro[cyclobutane-1,1′-pyrrolo[2,3-c]quinolin]-8′-yl)-2-(3-(dimethylamino)azetidin-1-yl)pyridin-3-yl)methanesulfonamide hydrochloride], the IC50 is over 100 nM.
`COc1ncc(-c2ccc3ncc4c(c3c2)C2(CC2)C(=O)N4C)cc1C(C)(C)O` [Example 26, 8′-(5-(2-Hydroxypropan-2-yl)-6-methoxypyridin-3-yl)-3′-methylspiro [cyclopropane-1,1′-pyrrolo[2,3-c]quinolin]-2′(3′-H)-one] displayed an IC50 of over 100 nM.
In turn, `CN1C(=O)C2(CCC2)c2c1cnc1ccc(-c3cnc(OCCCN4CC5CC(C4)O5)c(NS(C)(=O)=O)c3)cc21` [Example 303, N-(2-(3-(6-Oxa-3-azabicyclo[3.1.1]heptan-3-yl)propoxy)-5-(3′-methyl-2′-oxo-2′,3′-dihydrospiro[cyclobutane-1,1′-pyrrolo[2,3-c]quinolin]-8′-yl)pyridin-3-yl)methanesulfonamide] returned an IC50 of over 100 nM.
Compound `CC(=O)Nc1ccc(S(=O)(=O)Nc2cc(-c3ccc4ncc5c(c4c3)C3(CC3)C(=O)N5C)cnc2OCCCN(C)C)cc1` [Example 101, N-(4-(N-(2-(3-(Dimethylamino)propoxy)-5-(3′-methyl-2′-oxo-2′,3′-dihydrospiro [cyclopropane-1,1′-pyrrolo[2,3-c]quinolin]-8′-yl)pyridin-3-yl)sulfamoyl)phenyl) acetamide] came in with a 50% inhibitory concentration (IC50) of 1 to 100 nM.
With `CN(C)CC1CN(c2ncc(-c3ccc4ncc5c(c4c3)C3(CC3)C(=O)N5C)cc2NS(=O)(=O)C2CC2)C1` [Example 122, N-(2-(3-((Dimethylamino)methyl)azetidin-1-yl)-5-(3′-methyl-2′-oxo-2′,3′-dihydrospiro[cyclopropane-1,1′-pyrrolo[2,3-c]quinolin]-8′-yl)pyridin-3-yl)cyclopropanesulfonamide], the IC50 was in the range of 1 to 100 nM.

The same experiment, now with this note: pKAP1 in etoposide-treated MCF-7 cells.
Compound `CN(C)CCCOc1ncc(-c2cc(F)c3ncc4c(c3c2)C2(CCC2)C(=O)N4C)cc1NS(=O)(=O)N(C)C` [Example 557, 8′-{6-[3-(Dimethylamino)propoxy]-5-[(dimethylsulfainoyl)amino]pyridin-3-yl}-6′-fluoro-3′-methyl-2′,3′-dihydrospiro [cyclobutane-1,1′-pyrrolo[2,3-c]quinoline]-2′-one] had a half-maximal inhibitory concentration (IC50) of 1 to 100 nM.
In turn, `CC(=O)N1CCC(N2CC3(C2)C(=O)N(C)c2cnc4cc(F)c(-c5cnc(OCCNC(C)C)c(NS(C)(=O)=O)c5)cc4c23)CC1` [Example 503, N-(5-(1-(1-Acetylpiperidin-4-yl)-7′-fluoro-3′-methyl-2′-oxo-2′,3′-dihydrospiro[azetidine-3,1′-pyrrolo[2,3-c]quinolin]-8′-yl)-2-(2-(isopropylamino)ethoxy)pyridin-3-yl)methanesulfonamide] came in with an IC50 of over 100 nM.
`CC(C)NCCOc1ncc(-c2cc3c4c(cnc3cc2F)N(C)C(=O)C42CN(C3CCN(C)CC3)C2)cc1NS(C)(=O)=O` [Example 502, N-(5-(7′-Fluoro-3′-methyl-1-(1-methylpiperidin-4-yl)-2′-oxo-2′,3′-dihydrospiro[azetidine-3,1′-pyrrolo[2,3-c]quinolin]-8′-yl)-2-(2-(isopropylamino)ethoxy)pyridin-3-yl)methanesulfonamide] had an IC50 of over 100 nM.
The compound `CC(C)NCCOc1ncc(-c2cc3c4c(cnc3cc2F)N(C)C(=O)C42COC2)cc1NS(C)(=O)=O` [Example 555, N-(5-(7′-Fluoro-3′-methyl-2′-oxo-2′,3′-dihydrospiro[oxetane-3,1′-pyrrolo[2,3-c]quinolin]-8′-yl)-2-(2-(isopropylamino)ethoxy)pyridin-3-yl)methanesulfonamide hydrochloride] came in with an IC50 of 1 to 100 nM.
`CC(C)NCCOc1ncc(-c2cc3c(cc2F)ncc2c3[C@]3(C[C@H](O)C3)C(=O)N2C)cc1NS(C)(=O)=O` [Example 381, cis-N-(5-(7′-Fluoro-3-hydroxy-3′-methyl-2′-oxo-2′,3′-dihydrospiro[cyclobutane-1,1′-pyrrolo[2,3-c]quinolin]-8′-yl)-2-(2-(isopropylamino)ethoxy)pyridin-3-yl)methanesulfonamide hydrochloride] returned an IC50 of 1 to 100 nM.
On the same count and under the same terms, under `CC(C)NCCOc1ncc(-c2cc3c(cc2F)ncc2c3[C@]3(C[C@H](n4ccccc4=O)C3)C(=O)N2C)cc1NS(C)(=O)=O` [Example 475, cis-N-(5-(7′-Fluoro-3′-methyl-2′-oxo-3-(2-oxopyridin-1(2H)-yl)-2′,3′-dihydrospiro[cyclobutane-1,1′-pyrrolo[2,3-c]quinolin]-8′-yl)-2-(2-(isopropylamino)ethoxy)pyridin-3-yl)methanesulfonamide] stands over 100 nM; under `CC(C)NCCOc1ncc(-c2cc3c(cc2F)ncc2c3[C@]3(C[C@@H](Cc4ccccc4)C3)C(=O)N2C)cc1NS(C)(=O)=O` [Example 450, trans-N-(5-(3-Benzyl-7-fluoro-3′-methyl-2′-oxo-2′,3′-dihydrospiro [cyclobutane-1,1′-pyrrolo[2,3-c]quinolin]-8′-yl)-2-(2-(isopropylamino)ethoxy)pyridin-3-yl)methanesulfonamide], 1 to 100 nM; under `CN1C(=O)C2(CCC2)c2c1cnc1ccc(-c3cnc(N4CC5(CN(C(=O)OC(C)(C)C)C5)C4)c(NS(C)(=O)=O)c3)cc21` [Example 347, tert-Butyl 6-(5-(3′-methyl-2′-oxo-2′,3′-dihydrospiro [cyclobutane-1,1′-pyrrolo[2,3-c]quinolin]-8′-yl)-3-(methylsulfonamido)pyridin-2-yl)-2,6-diazaspiro[3.3] heptane-2-carboxylate], over 100 nM.
Compound `CC(C)CN1CC2(C1)C(=O)N(C)c1cnc3cc(F)c(-c4cnc(OCCNC(C)C)c(NS(C)(=O)=O)c4)cc3c12` [Example 491, N-(5-(7′-Fluoro-1-isobutyl-3′-methyl-2′-oxo-2′,3′-dihydrospiro[azetidine-3,1′-pyrrolo[2,3-c]quinolin]-8′-yl)-2-(2-(isopropylamino)ethoxy)pyridin-3-yl)methanesulfonamide] came in with an IC50 of 1 to 100 nM.
In the case of `CC(C)NCCOc1ncc(-c2cc3c4c(cnc3cc2F)N(C)C(=O)C42CN(c3nnn(C)n3)C2)cc1NS(C)(=O)=O` [Example 552, N-(5-(7′-Fluoro-3′-methyl-1-(2-methyl-2H-tetrazol-5-yl)-2′-oxo-2′,3′-dihydrospiro[azetidine-3,1′-pyrrolo[2,3-c]quinolin]-8′-yl)-2-(2-(isopropylamino)ethoxy)pyridin-3-yl)methanesulfonamide], the IC50 was over 100 nM.
Compound `CN1C(=O)C2(CCC2)c2c1cnc1cc(F)c(-c3cnc(N4CC(N(C)C)C4)c(NS(=O)(=O)C(F)F)c3)cc21` [Example 341, N-(2-(3-(Dimethylamino)azetidin-1-yl)-5-(7′-fluoro-3′-methyl-2′-oxo-2′,3′-dihydrospiro[cyclobutane-1,1′-pyrrolo[2,3-c]quinolin]-8′-yl)pyridin-3-yl)-1,1′-difluoromethane-sulfonamide formate] displayed an IC50 of over 100 nM.
